Results taken from patent US8759318B2, “Phosphoramidate derivatives of guanosine nucleoside compounds for treatment of viral infections” (Inhibitex, Inc., priority 2009, dated 2014).
Like-named read-outs stand apart in the source and are kept apart here.

How the values were obtained:
[1] = Protide stability in normal plasma, human; assay type: in vitro ADME; details: 37° C.
Procedure: (§1) Selected nucleoside 5′-phosphoramidates were examined for stability in human, cynomolgous monkey, rat and mouse plasma at 37° C. at both 30 min and 90 min time points.
(§2) Protide Stability in Normal Plasma: Plasma samples were prepared for analysis as follows. 50 μl of each test sample were distributed a 96-well V-bottom plate. 200 μl of acetonitrile containing 10 ng/ml of an internal standard was added to each plasma sample. The precipitated samples were centrifuged at 2500 rpm, 4° C. for 20 minutes in a Sorvall RT6000S centrifuge (Thermo Scientific, Waltham Mass.) and 100 μl of supernatant from each sample was transferred into a 96 deep well plate followed by the addition of 100 μl H2O to each sample. Samples were covered, mixed well by vortexing and maintained at 2-8° C. before and during analysis. 15 μl of each test sample was analyzed for protide concentrations by liquid chromatography coupled to tandem mass spectrometry (LC-MS/MS). Liquid chromatography was performed with an Agilent 1100 Series HPLC system equipped with a Synergi 4 μm Polar-RP, 30×2.0 mm column (Phenomenex, Torrance, Calif.). The HPLC system was coupled to an API 4000 triple quadrupole mass spectrometer (Applied Biosystems, Framingham, Mass.). Mass spectrometry was performed in positive ion mode and data was analyzed using Analyst® v1.4.2 software (Applied Biosystems, Framingham, Mass.). Data was presented as the percentage of compound recovered as compared to the 0 time point control.

[2] = tested on: HIV-1 Strain IIIB; experiment: Cytoprotection assay for HIV; assay type: cell-based; details: Human immunodeficiency virus 1; HIV-1 IIIB, MT-4
Procedure: Activity against other viruses. A representative compound, Example 20, Compound F, was tested against a panel of other RNA and DNA viruses. Compound F was synthesized as described in the Experimental section. Experimental conditions for growing the cells and viruses are listed below. Unless otherwise indicated, cells and viruses were obtained from the American Type Culture Collection (ATCC, Rockville, Md.).
MT-4 cells ((Catalog #120) Human T-cell Leukemia) were obtained from the NIH AIDS Reference Reagent Program and were used in cytoprotection assays with HIV-1 Strain IIIB (Southern Research). They were grown in RPMI-1640 medium supplemented with 10% FBS.
Cytoprotection Assay for HIV:_MT-4 cells were sub-cultured one day prior to testing. Cells were plated in 96 well cell culture plates at a seeding density of 6×10^5 cells/ml (3×10^4 cells/well). […] Cytoprotection and compound cytotoxicity were assessed by XTT assay (Cat#11-465-015-001, Roche Diagnostics). The plates were read spectrophotometrically at 450/650 nm with a Molecular Devices SpectraMax M2 plate reader. The percent reduction in viral CPE was determined and reported as IC50, CC50 and a calculated TI. Samples were evaluated for antiviral efficacy and cytotoxicity with triplicate measurements using 9 concentrations at 2-fold dilutions. […]

[3] = Protide stability in normal plasma, cynomolgous monkey; assay type: in vitro ADME; details: 37° C.
Procedure: as §1, §2

[4] = tested on: Influenza B strain Lee; experiment: Cytoprotection assay, Influenza B; assay type: cell-based; details: Influenza B virus, MDCK
[5] = Protide stability in normal plasma, rat; assay type: in vitro ADME; details: 37° C.
Procedure: as §1, §2

[6] = tested on: Coxsackie virus strain B4; experiment: Cytoprotection assay, Coxsackie virus; assay type: cell-based; details: Enterovirus B, B4, Vero
[7] = tested on: Bovine Viral Diarrhea Virus (BVDV) strain NADL; experiment: Cytoprotection assay, BVDV; assay type: cell-based; details: Bovine viral diarrhea virus isolates and strains, MDBK
[8] = tested on: Vero cells
[9] = tested on: HSV-1 strain HF; experiment: Cytoprotection assay, HSV-1; assay type: cell-based; details: Human alphaherpesvirus 1, Vero
[10] = tested on: Poliovirus strain Chat; experiment: microbe, parasite or virus in culture; assay type: cell-based, Poliovirus I; details: Enterovirus C, Vero
[11] = tested on: RSV strain Long; experiment: Cytoprotection assay, RSV; assay type: cell-based; details: human respiratory syncytial virus, Vero

Question: For `COc1nc(N)nc2c1ncn2C1O[C@H](COP(=O)(N[C@@H](C)C(=O)OCC(C)(C)C)Oc2cccc3ccccc23)[C@@H](O)[C@@]1(C)O` (stereo partly shown) [Example 20], which “% Compound Remaining Compared to %100 Acetonitrile Control” value ([1]; 30 min) is on record?
Answer: Its value is 94.0%.

Question: What about the “% Compound Remaining Compared to %100 Acetonitrile Control” value ([1]; 1.5 h) of the same compound?
Answer: The value was 101.5%.

Question: What about the EC50 [2] of the same compound?
Answer: Its EC50 is greater than 10 µM.

Question: And the “% Compound Remaining Compared to %100 Acetonitrile Control” value ([3]; 30 min)?
Answer: The value was 97.0%.

Question: What about the “% Compound Remaining Compared to %100 Acetonitrile Control” value ([3]; 1.5 h) of the same compound?
Answer: Its value is 94.0%.

Question: And the EC50 [4]?
Answer: Its EC50 is greater than 10 µM.

Question: What about the “% Compound Remaining Compared to %100 Acetonitrile Control” value ([5]; 30 min) of the same compound?
Answer: Its value is 0%.

Question: And the “% Compound Remaining Compared to %100 Acetonitrile Control” value ([5]; 1.5 h)?
Answer: The value was 0%.

Question: And the EC50 [6]?
Answer: The EC50 was greater than 10 µM.

Question: And the EC50 [7]?
Answer: The EC50 was 748 nM.

Question: And the CC50 ([8]; African green monkey)?
Answer: Its CC50 is greater than 10 µM.

Question: And the CC50 ([8]; Vero, HSV-1 assay)?
Answer: The CC50 was greater than 10 µM.

Question: What about the CC50 ([8]; Vero, RSV assay) of the same compound?
Answer: The CC50 was greater than 10 µM.

Question: And the EC50 [9]?
Answer: Its EC50 is greater than 10 µM.

Question: What about the EC50 [10] of the same compound?
Answer: The EC50 was 4.71 µM.

Question: What about the EC50 [11] of the same compound?
Answer: The EC50 was greater than 10 µM.
